Activity calls are given as the source filed them. No cut-off for these calls is given here.
Assays:
[1] = biological target: Cellular tumor antigen p53 (Homo sapiens) (UniProt P04637); assay: Activation of p53 pathway in human MOLM-13 cells assessed as increase in p53 level incubated for 24 hrs by Western blot analysis; format: cell-based; details: filed as activator, dose 0.038-0.6 µM
[2] = biological target: Cellular tumor antigen p53 (Homo sapiens) (UniProt P04637); assay: Activation of p53 pathway in human MOLM-13 cells assessed as increase in p21 level incubated for 24 hrs by Western blot analysis; format: cell-based; details: filed as activator, dose 0.038-0.6 µM
[3] = biological target: Cellular tumor antigen p53 (Homo sapiens) (UniProt P04637); assay: Activation of p53 pathway in human MOLM-13 cells assessed as increase in MDM2 level incubated for 24 hrs by Western blot analysis; format: cell-based; details: filed as activator, dose 0.038-0.6 µM
MOLM-13 [4] = assay: Induction of apoptosis in human MOLM-13 cells assessed as increase in PARP cleavage at 0.15 to 0.6 uM incubated for 24 hrs by Western blot analysis; format: functional, cell-based; details: dose 0.15-0.6 µM
[5] = biological target: Cellular tumor antigen p53 (Homo sapiens) (UniProt P04637); assay: Activation of p53 pathway in human MOLM-13 cells assessed as increase in p21 mRNA level incubated for 24 hrs by qPCR analysis; format: cell-based; details: filed as activator, dose 0.038-0.6 µM
[6] = biological target: Cellular tumor antigen p53 (Homo sapiens) (UniProt P04637); assay: Activation of p53 pathway in human MOLM-13 cells assessed as increase in PUMA mRNA level incubated for 24 hrs by qPCR analysis; format: cell-based; details: filed as activator, dose 0.038-0.6 µM
MOLM-13 [7] = assay: Induction of apoptosis in human MOLM-13 cells assessed as viable cells at 0.1 uM incubated for 24 hrs by Annexin V-FITC/PI staining based flow cytometry (reference value: 95.1 %); format: functional; details: read-out: Activity
MOLM-13 [8] = assay: Induction of apoptosis in human MOLM-13 cells assessed as early apoptotic cells at 0.1 uM incubated for 24 hrs by Annexin V-FITC/PI staining based flow cytometry (reference value: 4.44 %); format: functional
MOLM-13 [9] = assay: Induction of apoptosis in human MOLM-13 cells assessed as necrotic cells at 0.1 uM incubated for 24 hrs by Annexin V-FITC/PI staining based flow cytometry (reference value: 0.020 %); format: functional
MOLM-13 [10] = assay: Induction of apoptosis in human MOLM-13 cells assessed as early apoptotic cells at 0.3 uM incubated for 24 hrs by Annexin V-FITC/PI staining based flow cytometry (reference value: 4.44 %); format: functional
MOLM-13 [11] = assay: Induction of apoptosis in human MOLM-13 cells assessed as late apoptotic cells at 0.3 uM incubated for 24 hrs by Annexin V-FITC/PI staining based flow cytometry (reference value: 0.457 %); format: functional
MOLM-13 [12] = assay: Induction of apoptosis in human MOLM-13 cells assessed as necrotic cells at 0.3 uM incubated for 24 hrs by Annexin V-FITC/PI staining based flow cytometry (reference value: 0.020 %); format: functional
MOLM-13 [13] = assay: Induction of apoptosis in human MOLM-13 cells assessed as viable cells at 0.9 uM incubated for 24 hrs by Annexin V-FITC/PI staining based flow cytometry (reference value: 95.1 %); format: functional; details: read-out: Activity
MOLM-13 [14] = assay: Induction of apoptosis in human MOLM-13 cells assessed as necrotic cells at 0.9 uM incubated for 24 hrs by Annexin V-FITC/PI staining based flow cytometry (reference value: 0.020 %); format: functional
MOLM-13 [15] = assay: Induction of apoptosis in human MOLM-13 cells assessed as viable cells at 2.7 uM incubated for 24 hrs by Annexin V-FITC/PI staining based flow cytometry (reference value: 95.1 %); format: functional; details: read-out: Activity
MOLM-13 [16] = assay: Induction of apoptosis in human MOLM-13 cells assessed as early apoptotic cells at 2.7 uM incubated for 24 hrs by Annexin V-FITC/PI staining based flow cytometry (reference value: 4.44 %); format: functional
MOLM-13 [17] = assay: Induction of apoptosis in human MOLM-13 cells assessed as necrotic cells at 2.7 uM incubated for 24 hrs by Annexin V-FITC/PI staining based flow cytometry (reference value: 0.020 %); format: functional
MOLM-13 [18] = assay: Induction of apoptosis in human MOLM-13 cells assessed as viable cells at 8.1 uM incubated for 24 hrs by Annexin V-FITC/PI staining based flow cytometry (reference value: 95.1 %); format: functional; details: read-out: Activity
MOLM-13 [19] = assay: Induction of apoptosis in human MOLM-13 cells assessed as early apoptotic cells at 8.1 uM incubated for 24 hrs by Annexin V-FITC/PI staining based flow cytometry (reference value: 4.44 %); format: functional
MOLM-13 [20] = assay: Induction of apoptosis in human MOLM-13 cells assessed as late apoptotic cells at 8.1 uM incubated for 24 hrs by Annexin V-FITC/PI staining based flow cytometry (reference value: 0.457 %); format: functional
MOLM-13 [21] = assay: Induction of apoptosis in human MOLM-13 cells assessed as necrotic cells at 8.1 uM incubated for 24 hrs by Annexin V-FITC/PI staining based flow cytometry (reference value: 0.020 %); format: functional
MOLM-13 [22] = assay: Induction of apoptosis in human MOLM-13 cells assessed as late apoptotic cells at 24.3 uM incubated for 24 hrs by Annexin V-FITC/PI staining based flow cytometry (reference value: 0.457 %); format: functional
MOLM-13 [23] = assay: Induction of apoptosis in human MOLM-13 cells assessed as necrotic cells at 24.3 uM incubated for 24 hrs by Annexin V-FITC/PI staining based flow cytometry (reference value: 0.020 %); format: functional
[24] = Antiproliferative activity against HEK293 cells incubated for 4 days by CCK8 assay; format: toxicity, cell-based; details: human
[25] = Selectivity index, ratio of IC50 for HEK293 cells to IC50 for human A549 cells; format: toxicity; details: HEK293 cells versus A549 cells, read-out: Ratio IC50
[26] = Selectivity index, ratio of IC50 for HEK293 cells to IC50 for human HeLa cells; format: toxicity; details: HEK293 cells versus HeLa cells, read-out: Ratio IC50
[27] = biological target: Cellular tumor antigen p53 (Homo sapiens) (UniProt P04637); assay: Activation of p53 pathway in human HCT-116 cells assessed as increase in p53 level at 1 uM incubated for 24 hrs by Western blot analysis; format: cell-based; details: filed as activator
[28] = biological target: Cellular tumor antigen p53 (Homo sapiens) (UniProt P04637); assay: Activation of p53 pathway in human HCT-116 cells assessed as increase in MDM2 level at 1 uM incubated for 24 hrs by Western blot analysis; format: cell-based; details: filed as activator
[29] = biological target: Cellular tumor antigen p53 (Homo sapiens) (UniProt P04637); assay: Activation of p53 pathway in human HCT-116 cells assessed as increase in p21 level at 1 uM incubated for 24 hrs by Western blot analysis; format: cell-based; details: filed as activator
[30] = biological target: Cellular tumor antigen p53 (Homo sapiens) (UniProt P04637); assay: Activation of p53 pathway in human A549 cells assessed as increase in MDM2 level at 1 uM incubated for 24 hrs by Western blot analysis; format: cell-based; details: filed as activator
[31] = biological target: Cellular tumor antigen p53 (Homo sapiens) (UniProt P04637); assay: Activation of p53 pathway in human HeLa cells assessed as increase in p53 level at 1 uM incubated for 24 hrs by Western blot analysis; format: cell-based
[32] = biological target: Cellular tumor antigen p53 (Homo sapiens) (UniProt P04637); assay: Activation of p53 pathway in human HeLa cells assessed as increase in p21 level at 1 uM incubated for 24 hrs by Western blot analysis; format: cell-based
MOLM-13 [33] = assay: cells; details: Homo sapiens, MOLM-13, 48 h
A549 = assay: cells; details: Homo sapiens, A549, 96 h
HeLa = assay: cells; details: Homo sapiens, 96 h
SW480 = assay: cells; details: Homo sapiens, SW480, 96 h

Cellular tumor antigen p53 (Homo sapiens), sequence (P04637 whole entry, looked up): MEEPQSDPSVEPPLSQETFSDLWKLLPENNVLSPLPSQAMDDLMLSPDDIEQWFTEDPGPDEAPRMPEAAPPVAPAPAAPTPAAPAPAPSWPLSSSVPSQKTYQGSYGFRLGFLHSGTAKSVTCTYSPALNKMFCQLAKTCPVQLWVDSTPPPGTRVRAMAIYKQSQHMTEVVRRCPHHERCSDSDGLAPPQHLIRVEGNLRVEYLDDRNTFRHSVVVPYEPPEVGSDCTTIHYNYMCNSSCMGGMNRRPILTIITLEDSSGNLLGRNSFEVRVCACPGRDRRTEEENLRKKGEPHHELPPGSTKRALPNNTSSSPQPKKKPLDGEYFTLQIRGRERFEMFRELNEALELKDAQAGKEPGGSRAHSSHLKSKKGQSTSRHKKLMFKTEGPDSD

COc1cc(C(=O)O)ccc1N1CN2[C@@H](CC(C)(C)C)[C@@]3(CNc4cc(Cl)ccc43)[C@@H](c3cccc(Cl)c3)[C@@H]2C1=O
Activity [1]: Dose-Dependent Effect | Activity [2]: Dose-Dependent Effect | Activity [3]: Dose-Dependent Effect | Activity (MOLM-13 [4]): Active | Activity [5]: Dose-Dependent Effect | Activity [6]: Dose-Dependent Effect | viability at 0.1 µM (MOLM-13 [7]): 83.8% | Activity (MOLM-13 [8]): 15.2% | Activity (MOLM-13 [9]): 0.124% | Activity (MOLM-13 [10]): 24.4% | Activity (MOLM-13 [11]): 0.998% | Activity (MOLM-13 [12]): 0.179% | viability at 0.9 µM (MOLM-13 [13]): 50% | Activity (MOLM-13 [14]): 0.119% | viability at 2.7 µM (MOLM-13 [15]): 30.1% | Activity (MOLM-13 [16]): 68.6% | Activity (MOLM-13 [17]): 0.125% | viability at 8.1 µM (MOLM-13 [18]): 27.4% | Activity (MOLM-13 [19]): 71% | Activity (MOLM-13 [20]): 1.41% | Activity (MOLM-13 [21]): 0.176% | Activity (MOLM-13 [22]): 1.96% | Activity (MOLM-13 [23]): 0.047% | IC50 at 4 days [24]: 9.65 µM | selectivity ratio [25]: 52 | selectivity ratio [26]: 0.8 | Activity [27]: Active | Activity [28]: Active | Activity [29]: Active | Activity [30]: Active | Activity [31]: inactive | Activity [32]: inactive | IC50 (MOLM-13 [33]): 0.0008 µM | IC50 (A549): 0.184 µM | IC50 (HeLa): 12.3 µM | IC50 (SW480): 5.94 µM

— ChEMBL document CHEMBL5512651, “Synthesis and biological evaluation of 4-imidazolidinone-containing compounds as potent inhibitors of the MDM2/p53 interaction” (Eur J Med Chem, 2024)
